Experimental data: ChEMBL document CHEMBL3232928, “Fragment-to-hit-to-lead discovery of a novel pyridylurea scaffold of ATP competitive dual targeting type II topoisomerase inhibiting antibacterial agents” (J Med Chem, 2013)
≈ marks a conversion by molar mass, not a printed value.

Molecular target: DNA gyrase subunit B (Staphylococcus aureus, UniProt P0A0K8)
Assay: Inhibition of ATPase activity in Staphylococcus aureus GyrB tetramer in presence of Escherichia coli GyrA by ammonium molybdate/malachite green-based absorbance assay
Settings: not given

Chain of DNA gyrase subunit B (P0A0K8 whole entry): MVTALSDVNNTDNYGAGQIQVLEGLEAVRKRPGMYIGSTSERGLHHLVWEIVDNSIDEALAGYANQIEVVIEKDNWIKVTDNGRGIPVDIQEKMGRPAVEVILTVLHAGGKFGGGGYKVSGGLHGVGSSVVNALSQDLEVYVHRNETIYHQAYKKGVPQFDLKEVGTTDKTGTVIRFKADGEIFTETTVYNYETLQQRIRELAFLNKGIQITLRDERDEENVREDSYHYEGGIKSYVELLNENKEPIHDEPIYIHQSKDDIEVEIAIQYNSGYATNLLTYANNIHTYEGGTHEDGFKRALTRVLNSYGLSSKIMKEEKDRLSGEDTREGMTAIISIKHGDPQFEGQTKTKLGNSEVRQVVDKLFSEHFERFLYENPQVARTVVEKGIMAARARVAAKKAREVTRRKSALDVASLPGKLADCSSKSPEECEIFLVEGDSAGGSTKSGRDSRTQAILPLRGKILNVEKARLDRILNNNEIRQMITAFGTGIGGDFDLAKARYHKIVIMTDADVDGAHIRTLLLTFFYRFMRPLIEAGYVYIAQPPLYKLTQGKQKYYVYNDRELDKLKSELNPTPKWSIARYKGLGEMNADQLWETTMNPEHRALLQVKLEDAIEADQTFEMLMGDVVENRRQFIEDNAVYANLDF

Row | Compound | IC50 [nM]
1 | CCNC(=O)Nc1cc(-c2nc(C(F)(F)F)cs2)c(-c2cncc(-c3noc(=O)[nH]3)c2)cn1 | 14

Tested on: not listed separately
Assay: Inhibition of ATPase activity in Escherichia coli GyrA/GyrB by ammonium molybdate/malachite green-based absorbance assay
Settings: not given

Row | Compound | IC50 [nM]
2 | CCNC(=O)Nc1cc(-c2nc(C(F)(F)F)cs2)c(-c2cncc(-c3noc(=O)[nH]3)c2)cn1 | < 10

Tested on: not listed separately
Assay: Inhibition of ATPase activity in Escherichia coli ParC/ParE by ammonium molybdate/malachite green-based absorbance assay
Settings: not given

Row | Compound | IC50 [nM]
3 | CCNC(=O)Nc1cc(-c2nc(C(F)(F)F)cs2)c(-c2cncc(-c3noc(=O)[nH]3)c2)cn1 | 1500

Tested on: not listed separately
Assay: Inhibition of ATPase activity in Escherichia coli ParE by ammonium molybdate/malachite green-based absorbance assay
Settings: not given

Row | Compound | IC50 [nM]
4 | CCNC(=O)Nc1cc(-c2nc(C(F)(F)F)cs2)c(-c2cncc(-c3noc(=O)[nH]3)c2)cn1 | 11

Tested on: not listed separately
Assay: Antibacterial activity against Streptococcus pneumoniae D39 NCTC 7466 assessed as growth inhibition after 18 to 24 hrs by CLSI broth microdilution method
Format: functional
Settings: not given

Row | Compound | MIC [µg/mL]
5 | CCNC(=O)Nc1cc(-c2nc(C(F)(F)F)cs2)c(-c2cncc(-c3noc(=O)[nH]3)c2)cn1 | 0.74 (≈ 1.55 µM)

Tested on: Staphylococcus aureus
Assay: Antibacterial activity against methicillin-sensitive wild type Staphylococcus aureus assessed as growth inhibition after 18 to 24 hrs by CLSI broth microdilution method
Format: functional
Settings: not given

Row | Compound | MIC [µg/mL]
6 | CCNC(=O)Nc1cc(-c2nc(C(F)(F)F)cs2)c(-c2cncc(-c3noc(=O)[nH]3)c2)cn1 | 48 (≈ 101 µM)

Tested on: Staphylococcus aureus
Assay: Antibacterial activity against methicillin-resistant and […] Staphylococcus aureus assessed as growth inhibition after 18 to 24 hrs by CLSI broth microdilution method
Format: functional
Settings: not given

Row | Compound | MIC [µg/mL]
7 | CCNC(=O)Nc1cc(-c2nc(C(F)(F)F)cs2)c(-c2cncc(-c3noc(=O)[nH]3)c2)cn1 | 48 (≈ 101 µM)

Tested on: Moraxella catarrhalis
Assay: Antibacterial activity against wild type Moraxella catarrhalis ATCC 43617 assessed as growth inhibition after 18 to 24 hrs by CLSI broth microdilution method
Format: functional
Settings: not given

Row | Compound | MIC [µg/mL]
8 | CCNC(=O)Nc1cc(-c2nc(C(F)(F)F)cs2)c(-c2cncc(-c3noc(=O)[nH]3)c2)cn1 | 24 (≈ 50.3 µM)

Tested on: not listed separately
Assay: Antibacterial activity against wild type Haemophilus influenzae Rd KW20 ATCC 51907 assessed as growth inhibition after 18 to 24 hrs by CLSI broth microdilution method
Format: functional
Settings: not given

Row | Compound | MIC [µg/mL]
9 | CCNC(=O)Nc1cc(-c2nc(C(F)(F)F)cs2)c(-c2cncc(-c3noc(=O)[nH]3)c2)cn1 | > 64

Tested on: Escherichia coli
Assay: Antibacterial activity against wild type Escherichia coli W3110 assessed as growth inhibition after 18 to 24 hrs by CLSI broth microdilution method
Format: functional
Settings: not given

Row | Compound | MIC [µg/mL]
10 | CCNC(=O)Nc1cc(-c2nc(C(F)(F)F)cs2)c(-c2cncc(-c3noc(=O)[nH]3)c2)cn1 | > 64

Tested on: Escherichia coli
Assay: Antibacterial activity against tolC efflux pump deficient Escherichia coli W3110 assessed as growth inhibition after 18 to 24 hrs by CLSI broth microdilution method
Format: functional
Settings: not given

Row | Compound | MIC [µg/mL]
11 | CCNC(=O)Nc1cc(-c2nc(C(F)(F)F)cs2)c(-c2cncc(-c3noc(=O)[nH]3)c2)cn1 | 12 (≈ 25.1 µM)

Tested on: not listed separately
Assay: Octanol-phosphate buffer partition coefficient, log D of the compound at pH 7.4 after 1 hr by shake flask method
Format: physicochemical
Settings: not given

Row | Compound | logD at 1 h
12 | CCNC(=O)Nc1cc(-c2nc(C(F)(F)F)cs2)c(-c2cncc(-c3noc(=O)[nH]3)c2)cn1 | 0.28

Tested on: not listed separately
Assay: Solubility of the compound
Format: physicochemical
Settings: not given

Row | Compound | solubility [µM]
13 | CCNC(=O)Nc1cc(-c2nc(C(F)(F)F)cs2)c(-c2cncc(-c3noc(=O)[nH]3)c2)cn1 | 830 (≈ 396 µg/mL)

Tested on: not listed separately
Assay: Unbound fraction in human at 10 uM after 16 hrs by LC-MS/MS analysis
Format: ADME
Settings: plasma

Row | Compound | fraction unbound at 16 h, 10 µM
14 | CCNC(=O)Nc1cc(-c2nc(C(F)(F)F)cs2)c(-c2cncc(-c3noc(=O)[nH]3)c2)cn1 | 0.011

Tested on: not listed separately
Assay: Dissociation constant, pKa of the compound
Format: physicochemical
Settings: not given

Row | Compound | pKa
15 | CCNC(=O)Nc1cc(-c2nc(C(F)(F)F)cs2)c(-c2cncc(-c3noc(=O)[nH]3)c2)cn1 | 5.4

Tested on: not listed separately
Assay: Clearance in rat plasma at 10 mg/kg, iv administered 15 mins of infusion measured for 0 to 24 hrs by LC-MS/MS analysis
Format: ADME, organism-based
Parameters: dose 10 mg/kg, route intravenous
Settings: not given

Row | Compound | clearance [mL/min/kg]
16 | CCNC(=O)Nc1cc(-c2nc(C(F)(F)F)cs2)c(-c2cncc(-c3noc(=O)[nH]3)c2)cn1 | 360

Tested on: not listed separately
Assay: Volume of distribution at steady state in rat plasma at 10 mg/kg, iv administered 15 mins of infusion measured for 0 to 24 hrs by LC-MS/MS analysis
Format: ADME, organism-based
Parameters: dose 10 mg/kg, route intravenous
Settings: read-out: Vdss

Row | Compound | Vd [L/kg]
17 | CCNC(=O)Nc1cc(-c2nc(C(F)(F)F)cs2)c(-c2cncc(-c3noc(=O)[nH]3)c2)cn1 | 3.5
